In US5043332A, “Novel 11β-substituted -19-nor-steriods” (priority 1981, dated 1991):
Where two headings read alike, the source gives them in different places.

How the values were obtained:
[1] = target: T1, Gluocorticoid receptor of thymus of rats (Rattus norvegicus, UniProt P06536); assay: Glucocorticoid receptor binding (displacement of tritiated dexamethasone); settings: for affinity for glucocorticoid receptors (in words): conclusion
T1 construct: The thymus were removed and homogenized at 0° C; from tissue; host or cells: rat thymus, 105,000 g supernatant (adrenalectomized male Sprague-Dawley rats)
T1 sequence (P06536 1-795): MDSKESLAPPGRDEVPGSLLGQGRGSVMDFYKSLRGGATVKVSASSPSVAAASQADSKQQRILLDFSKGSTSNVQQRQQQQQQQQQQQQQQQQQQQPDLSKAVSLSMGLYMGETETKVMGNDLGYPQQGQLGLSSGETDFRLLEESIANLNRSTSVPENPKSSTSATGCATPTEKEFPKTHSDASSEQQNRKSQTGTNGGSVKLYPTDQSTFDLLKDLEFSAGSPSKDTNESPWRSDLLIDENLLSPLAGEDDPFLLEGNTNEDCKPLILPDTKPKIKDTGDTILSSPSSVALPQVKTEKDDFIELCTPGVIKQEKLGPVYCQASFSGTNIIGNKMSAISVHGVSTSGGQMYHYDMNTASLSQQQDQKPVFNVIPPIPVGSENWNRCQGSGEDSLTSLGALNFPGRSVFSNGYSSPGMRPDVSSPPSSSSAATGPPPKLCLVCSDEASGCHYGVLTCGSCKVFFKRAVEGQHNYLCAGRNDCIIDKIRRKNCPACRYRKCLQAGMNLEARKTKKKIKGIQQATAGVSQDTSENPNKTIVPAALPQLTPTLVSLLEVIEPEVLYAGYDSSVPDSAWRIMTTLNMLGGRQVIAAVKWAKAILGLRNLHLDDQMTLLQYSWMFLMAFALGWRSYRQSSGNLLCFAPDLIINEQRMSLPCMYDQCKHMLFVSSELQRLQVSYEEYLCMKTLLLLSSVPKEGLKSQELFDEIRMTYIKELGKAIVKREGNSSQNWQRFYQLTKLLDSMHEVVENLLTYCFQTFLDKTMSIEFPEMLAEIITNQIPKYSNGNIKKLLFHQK
Protocol: D. Gluocorticoid receptor of thymus of rats
Male Sprague-Dawley EPOS rats weighing 160 to 200 g were surrenalectomized and the animals were killed 4 to 8 days later. The thymus were removed and homogenized at 0° C. in a buffered TS solution of 10 mM, Tris, 0.25M of Saccharose, 2 mM of dithiothreitol HCl for a pH of 7.4 using a polytetrafluoroethylene-glass Potter at a rate of 1 g of tissue per 10 ml of TS. […] The concentration of tied tritiated dexamethasone (B) was measured for each incubate by the adsorption on carbon-dextran technique.
The calculation of the relative affinity of […] (ARL) was identical for all of the above receptor tests. One traced the following two curves: the percentage of tied tritiated hormone B/T as a function of the logarithm of the cold hormone concentration and B/T as a function of the logarithm of the concentration of the cold test product. One determined the line of the equation. [formula]
The intersection of the I50 line and the curves permits one to determine the concentrations of the cold hormone of the reference (CH) and the cold test compound (CX) which inhibit by 50% the tieing of tritiated hormone with the receptor. The relative affinity of tieing (ARL) of the test product was determined by the equation: [formula]

[2] = test system: thymocytes of surrenalectomized rats; assay: Antiglucocorticoidal activity, incorporation of tritiated uridine in thymocytes; format: cell-based; settings: for inhibition at 1 µM / inhibition at 0.1 µM / inhibition at 0.01 µM: Rattus norvegicus, Thymocyte; for inhibition at 1 µM / % of inhibition of effect of Dexamethasone (symbol) / % inhibition of effect of Dexamethasone (symbol): 5 × 10^-8 M dexamethasone + test product 10^-6 M; for inhibition at 0.1 µM: 5 × 10^-8 M dexamethasone + test product 10^-7 M; for inhibition at 0.01 µM: 5 × 10^-8 M dexamethasone + test product 10^-8 M; for opposition to the effect of dexamethasone on tritiated uridine incorporation (in words): with 5×10^-8 M dexamethasone
Protocol: III. Antiglucocorticoidal Activity
The test used was that of Dausse et al [Molecular Pharmacology, Vol. 13 (1977), p. 948-955] entitled "The relationship between glucocorticoid structure and effects upon thymocytes" for […] thymocytes. The thymocytes of surrenalectomized rats were incubated at 37° C. for 3 hours in a nutritive medium containing 5×10^-8 M of dexamethasone in the presence or absence of the test compound at different concentrations. Tritiated uridine was added and incubation was continued for one hour. The incubates were cooled and treated with a 5% trifluoroacetic acid solution and the mixture was filtered with Whatman GF/A paper. The filter was washed 3 times with a 5% trifluoroacetic acid solution and retained radioactivity on the filter was determined.

[3] = read-out: % inhibition of effect of Dexamethasone
[4] = second table, incubation 4 H at 0° C.
[5] = second table, incubation 24 H at 0° C.
[6] = second table, read-out: % of inhibition of effect of Dexamethasone

| Structure (SMILES) | relative affinity of tieing (ARL), Glucocorticoid ([1]; incubation 4 H at 0° C.) | relative affinity of tieing (ARL), Glucocorticoid ([1]; incubation 24 H at 0° C.) | relative affinity of tieing (ARL), Glucocorticoid [1, 4] | relative affinity of tieing (ARL), Glucocorticoid [1, 5] | affinity for glucocorticoid receptors (in words) [1] | inhibition at 1 µM [2, 3] [%] | inhibition at 0.1 µM [2, 3] [%] | inhibition at 0.01 µM [2, 3] [%] | inhibition at 0.1 µM [2, 6] [%] | inhibition at 0.01 µM [2, 6] [%] | % of inhibition of effect of Dexamethasone (symbol) ([2]; second table) | opposition to the effect of dexamethasone on tritiated uridine incorporation (in words) [2] | inhibition at 1 µM [2, 6] [%] | % inhibition of effect of Dexamethasone (symbol) [2] |
| --- | --- | --- | --- | --- | --- | --- | --- | --- | --- | --- | --- | --- | --- | --- |
| CC#C[C@]1(O)CC[C@H]2[C@@H]3CCC4=CC(=O)C(C#N)(C#N)CC4=C3[C@@H](c3ccc(N(C)C)cc3)C[C@@]21C [Example 9, 2,2-dicyano-11β-(4-dimethylaminophenyl)-17α-(prop-1-ynyl)-Δ^4,9-estradiene-17β-ol-3-one] | 14 | 7 | – | – | – | 2 | 1 | 3 | – | – | – | – | – | – |
| CC#C[C@]1(O)CC[C@H]2[C@@H]3CCC4=CC(=O)C(C)(C)CC4=C3[C@@H](c3ccc(N(C)C)cc3)C[C@@]21C [Example 1, 2,2-dimethyl-11β-(4-dimethylaminophenyl)-17α-(prop-1-ynyl)-Δ^4,9-estradiene-17β-ol-3-one] | 97 | 38 | – | – | – | – | 18 | 8 | – | – | – | opposed this effect | – | * (A dose of 10^-6 M inhibited the effect of dexamethasone totally) |
| CN(C)c1ccc([C@H]2C[C@@]3(C)[C@@H](CC[C@@]3(O)C#C[Si](C)(C)C)[C@@H]3CCC4=CC(=O)CCC4=C32)cc1 [Example 44, 11β-[4-(N,N-dimethylamino)-phenyl]-21-trimethylsilyl-19-nor-17α-Δ^4,9-pregnadiene-20-yne-17β-ol-3-one] | – | – | 79 | 104 | – | – | – | – | – | – | – | – | – | – |
| C=C(C)C#C[C@]1(O)CC[C@H]2[C@@H]3CCC4=CC(=O)CCC4=C3[C@@H](c3ccc(N(C)C)cc3)C[C@@]21C [Example 23, 11β-[4-(N,N-dimethylamino)-phenyl]-23-methyl-19,21-dinor-17α-Δ^4,9,23-cholatriene-20-yn-17β-ol-3-one] | – | – | 212 | 167 | – | – | – | – | 53 | 22 | * (A dose of 10^-6 M inhibited totally the effect of dexamethasone) | opposed this effect | – | – |
| C[C@]12C[C@H](c3ccc([N+](C)(C)[O-])cc3)[C@]34O[C@]35CCC(=O)C=C5CC[C@H]4[C@@H]1CC[C@@]2(O)C#CCl [Example 27, N-oxide of 11β-[4-(N,N-dimethylamino)-phenyl]-9α,10α-epoxy-21-chloro-19-nor-17α-Δ^4-pregnene-20-yne-17β-ol-3-one] | – | – | 5,3 | 6,2 | – | – | – | – | – | – | – | – | – | – |
| C=CC[C@]1(O)CC[C@H]2[C@@H]3CCC4=CC(=O)CCC4=C3[C@@H](c3ccc(N(C)C)cc3)C[C@@]21C [Example 37, 11β-[4-(N,N-dimethylamino)-phenyl]-17α-(prop-2-enyl)-Δ^4,9-estradien-17β-ol-3-one] | – | – | 178 | 221 | very remarkable affinity | – | – | – | – | – | * (A dose of 10^-6 M inhibited totally the effect of dexamethasone) | opposed this effect | – | – |
| CC#C[C@]1(OC(C)=O)CC[C@H]2[C@@H]3CCc4cc(O)ccc4[C@H]3[C@@H](c3ccc(N(C)C)cc3)C[C@@]21C [2 (17 OAc), 11β-(4-dimethylaminophenyl)-17α-(prop-1-ynyl)-17β-acetoxy-Δ^1,3,5(10) -estratriene-3-ol] | 58 | 100 | – | – | – | – | 76 | 24 | – | – | – | – | – | * (A dose of 10^-6 M inhibited the effect of dexamethasone totally) |

Now from value to compound, other results behind:

| relative affinity of tieing (ARL), Glucocorticoid ([1]; incubation 4 H at 0° C.) | relative affinity of tieing (ARL), Glucocorticoid ([1]; incubation 24 H at 0° C.) | relative affinity of tieing (ARL), Glucocorticoid [1, 4] | relative affinity of tieing (ARL), Glucocorticoid [1, 5] | affinity for glucocorticoid receptors (in words) [1] | Structure (SMILES) | inhibition at 1 µM [2, 3] [%] | inhibition at 0.1 µM [2, 3] [%] | inhibition at 0.01 µM [2, 3] [%] | inhibition at 0.1 µM [2, 6] [%] | inhibition at 0.01 µM [2, 6] [%] | % of inhibition of effect of Dexamethasone (symbol) ([2]; second table) | opposition to the effect of dexamethasone on tritiated uridine incorporation (in words) [2] | inhibition at 1 µM [2, 6] [%] | % inhibition of effect of Dexamethasone (symbol) [2] |
| --- | --- | --- | --- | --- | --- | --- | --- | --- | --- | --- | --- | --- | --- | --- |
| – | – | 46 | 94 | – | CN(C)c1ccc([C@H]2C[C@@]3(C)[C@@H](CC[C@@]3(O)C#Cc3ccccc3)[C@@H]3CCC4=CC(=O)CCC4=C32)cc1 [Example 29, 11β-[4-(N,N-dimethylamino)-phenyl]-21-phenyl-19-nor-17α-Δ^4,9-pregnadiene-20-yne-17β-ol-3-one] | – | – | – | 57 | 18 | * (A dose of 10^-6 M inhibited totally the effect of dexamethasone) | opposed this effect | – | – |
| – | – | 9 | 14 | – | C[C@]12C[C@H](c3ccc([N+](C)(C)[O-])cc3)C3=C4CCC(=O)C=C4CC[C@H]3[C@@H]1CC[C@@]2(O)C#CCl [Example 26, N-oxide of 11β-[4-(N,N-dimethylamino)-phenyl]-21-chloro-19-nor-17α-Δ^4,9-pregnadiene-20-yne-17β-ol-3-one] | – | – | – | 34 | 14 | – | opposed this effect | 75 | – |
| – | – | 254 | 292 | very remarkable affinity | CN(C)c1ccc([C@H]2C[C@@]3(C)[C@@H](CC[C@@]3(O)C#CCl)[C@@H]3CCC4=CC(=O)CCC4=C32)cc1 [Example 25, 11β-[4-(N,N-dimethylamino)-phenyl]-21-chloro-19-nor-17α-Δ^4,9-pregnadiene-20-yne-17β-ol-3-one] | – | – | – | 85 | 57 | * (A dose of 10^-6 M inhibited totally the effect of dexamethasone) | opposed this effect | – | – |
| – | – | 7,8 | 5 | – | CC#C[C@]1(O)CC[C@H]2[C@@H]3CCC4=CC(=O)CCC4=C3[C@@H](c3ccc([N+](C)(C)[O-])cc3)C[C@@]21C [Example 35, N-oxide of 11β-[4-(N,N-dimethylamino)-phenyl]-17α-(prop-1-ynyl)-Δ^4,9-estradiene-17β-ol-3-one] | – | – | – | 21 | 4 | – | opposed this effect | 50 | – |
| – | – | 279 | 235 | very remarkable affinity | C#C[C@]1(O)CC[C@H]2[C@@H]3CCC4=CC(=O)CCC4=C3[C@@H](c3ccc(N(C)C)cc3)C[C@@]21C [Example 32, 11β-[4-(N,N-dimethylamino)-phenyl]-17α-ethynyl-Δ^4,9-estradiene-17β-ol-3-one] | – | – | – | – | – | – | – | – | – |
